experiment: Human HepG2 cell viability assay in 384 well format; type: toxicity, cell-based; parameters: dose 125 nL, time 70.5 hour; concentration not given beside the values; settings: HepG2 cells, read-out: Inhibition

SMILES	cytotoxicity at 70.5 h [%]
CCCc1cc(=O)n(CC(=O)NC(C)C)c(-n2nc(C)cc2C)n1	-4.73
Cn1ccc2c(C(=O)N3CCC(C(N)=O)CC3)cccc21	-2.97
COc1cc(OCC(=O)NCCc2ccccc2)cc(OC)c1OC	-5.97
CC(C)Nc1ccc2c(c1)C1(CCOCC1)C(=O)N2c1ccsc1	-7.35
Cc1cc(C(=O)N[C@H]2CC[C@@]3(CCC(=O)N3C)CC2)no1	-9.34
O=C(c1cccnc1)N1CCc2ncnc(N3CCOCC3)c2CC1	-7.42
O=C(NCC(F)(F)F)C(c1cccnc1)N1CCCC1 (stereo not drawn)	-5.02
COCCCNC(=O)c1c[nH]c2ccc(OC)cc12	-1.45
Cc1ccc(C2(O)CCN(C(=O)Cn3cc(C)c(=O)[nH]c3=O)CC2)nc1	-7.28
O=C(c1c[nH]c2ccccc2c1=O)N1CCSCC1	-6.3
Cc1ncnc2c1CCN(Cc1nccs1)CC2	-5.22
COc1cc(N2C[C@H](C(=O)N3CCCC3)[C@@H]3CCO[C@@H]3C2)ncn1	-0.329
Cc1ccc(CNc2ccc(C(=O)N3CCNC(=O)C3)cn2)cc1	4.12
CCC(=O)N1CCC2(COCc3c(C)nc(NCc4ccco4)nc32)C1 (stereo not drawn)	-6.57
CN(C)CCOCC1CN(Cc2ccsc2)Cc2ccnn2C1 (stereo not drawn)	3.88
N#CC1(NC(=O)c2nccc3ccccc23)CCC2(CC1)OCCO2	-25.4
Cc1noc(C)c1CN1C[C@H](OCC2CC2)[C@H]2OCCC[C@H]21	-9.93
O=C(CCNS(=O)(=O)c1ccc(F)c(F)c1)NCc1ccoc1	-3.45
CS(=O)(=O)N1CCN(c2ccc(Nc3ccccn3)nn2)CC1	-6.91
O=S(=O)(N1CCCC1)N1CCCCC1CCc1ccccc1 (stereo not drawn)	-5.36
Cc1nc[nH]c1C(=O)N1CC[C@@H](NC(=O)c2ccccn2)[C@H](O)C1	-1.79
CC(OCc1ccccc1)C(=O)NCc1ccc(N(C)C)cc1 (stereo not drawn)	-12.6
CN(C)c1ccc(CC(=O)N2C[C@H](C3CC3)[C@@H](N)C2)cc1	0.366

SMILES	cytotoxicity at 70.5 h [%]
COc1ccc(-c2c[nH]c([C@@H]3COCCN3)n2)cc1	1.65
CCc1nc(CN2CCCC2C(=O)NC)cs1 (stereo not drawn)	-0.35
CC(=O)N1C[C@H]2CCCN(Cc3ccc(C)o3)[C@H]2C1	-10.5
Clc1ccc(C2(CNC3=NCCN3)CCCC2)cc1	8.18
CCc1nc(C2CCCN(C(=O)c3cn(C)nc3C)C2)no1 (stereo not drawn)	36.3
CN1CC(C(=O)NCCc2ccc(F)c(Br)c2)CC1=O (stereo not drawn)	-8.01
CCc1ccc(C(=O)NC2CCN(c3ccn(C)n3)C2)o1 (stereo not drawn)	-2.13
COCC(=O)N1C[C@@H]2OCCN(Cc3c(C)noc3C)[C@@H]2C1	-11.4
Cn1nccc1-c1ccc2nc(C3CCNCC3)nn2c1	10.5
COc1cccc(OC2CN(C(=O)CCn3cnc4ccccc43)C2)c1	29.2
Cc1ccc(-n2c(COC(C)C)n[nH]c2=O)cc1	-2.37
CS(=O)(=O)CCN(CC1CCCO1)C1CCCC1 (stereo not drawn)	19.5
CS(=O)(=O)CCCC(=O)Nc1cc(Cl)c(Cl)cn1	0.966
O=C(NCCc1nccs1)c1cn(CCN2CCNCC2)nn1	-2.39
C=C/C=c1\c(=C/C)oc2c(NCc3ccccc3)ncnc12	10.6
COCCO[C@@H]1C[C@H]2CN(C(=O)c3cccnc3)CCN2C1	-6.81
COc1ccccc1C(NCc1ccc(SC)cc1)c1nccn1C (stereo not drawn)	11.2
CC1c2ncc(Cn3cncn3)n2CCN1C(=O)c1cscn1 (stereo not drawn)	20.8
COCC(=O)NC[C@H]1C[C@@H]2CCN1C[C@@H]2CN1CCc2ccccc21	-3.32
Cc1oc(C)c(C(=O)NCc2ccccn2)c1C	-6.3
CCNC(=O)[C@@H]1C[C@H](N)CN1C1CCN(c2ccccc2OC)CC1	-3.8
CN(C)CC(=O)N1CCc2sc(C(=O)N3CCOCC3)cc21	-0.909
CC(Nc1ccn(Cc2ccccn2)n1)C(=O)NC(C)(C)C (stereo not drawn)	-7.21

SMILES	cytotoxicity at 70.5 h [%]
Cc1nc(-c2cc(Cl)cc3c2OC(CN)C3)c[nH]1 (stereo not drawn)	11.1
CN1CCc2c(C#N)c(NCc3cccnc3)n3cnnc3c2C1	-27
Cc1cccc(N2CCN(C(=O)CC3(O)CCCC3)C(C)C2)n1 (stereo not drawn)	0.326
COc1ccc2c(=O)n(CC3CCNC3)ccc2c1OC (stereo not drawn)	1.63
Cc1cc(=O)[nH]cc1C(=O)N1CCN(C)c2ccccc2C1	-0.391
Cc1cc(O)c(OCC(=O)/N=c2/[nH]c3c(s2)CCC3)cn1	-14.7
Cc1cccc(CC(=O)N2CCCCC2CN)c1 (stereo not drawn)	-3.78
COC[C@@]12CCO[C@@H]1CCN(C(=O)C1CC(F)(F)C1)C2	-11.5
CSc1ccc(-c2noc(CN(Cc3ccccc3)C(C)C)n2)cc1	-6.81
Cc1cc(N2CCOC(c3ccc(C(N)=O)cn3)C2)ncn1 (stereo not drawn)	19.9
O=C(NCCc1csc(-c2cnccn2)n1)c1cnn[nH]1	21.3
COCCN1CCC(NC(=O)Nc2cccc(F)c2)C1 (stereo not drawn)	-0.696
COC(=O)CC1CN(Cc2ccn(-c3ccc(F)cc3)n2)CCO1 (stereo not drawn)	-8.65
Cc1cnc(CNC(=O)N(CCCO)C2CCc3ccccc32)s1 (stereo not drawn)	0.605
CN(CC(=O)N1CCCC1c1ccccn1)Cc1ccccc1 (stereo not drawn)	-6.16
COC(=O)C1CN(Cc2ccn(-c3ccc(F)cc3)n2)C[C@@H](C)O1 (stereo partly drawn)	21.2
COc1ccc(-n2cccn2)c(CN2CCC3(CCCNC3)C2)c1 (stereo not drawn)	-7.03
CC(C)c1noc(C(C)N2CCN(Cc3noc(C(C)(C)C)n3)CC2)n1 (stereo not drawn)	-3.35
COC(=O)N1CC[C@@]2(O)CCCC[C@H]2[C@@H]1c1ccc2c(c1)OCO2	-4.3
CCN1CCOCC12CCN(C(=O)Cc1cccs1)CC2	-8.5
Cc1ccc(CN(CCN(C)C)Cc2nc3ccccc3[nH]2)s1	11.2
Cn1ccnc1C(NCc1ccccc1)c1ccc(F)cc1 (stereo not drawn)	-2.68
CSc1ncccc1C(=O)N1C[C@H]2CC[C@@H]1CN(CC(=O)N(C)C)C2	45.6

SMILES	cytotoxicity at 70.5 h [%]
CCc1c(C)nc(C)nc1N1C[C@@H](CN(C)CCN(C)C)[C@@H](CO)C1	-9.98
Cc1ccc(CN(C)C(=O)CCn2c(=O)n(C)c3ccccc32)o1	-6.04
CN(C)C(C(=O)NCc1cc(C(C)(C)C)n[nH]1)c1ccc(F)cc1 (stereo not drawn)	-4.44
Cc1nc(CN2CCC3(CC2)CC(=O)N(C)c2ccccc23)cs1	-7.28
CC(=O)N1CCN(Cc2c(C)sc3ccccc23)CC(O)C1 (stereo not drawn)	-3.67
CN(C)C(=O)NCc1nnc2n1CCN(Cc1cccs1)C2	-2.91
CCOc1ccc(Br)cc1-c1cc(N)[nH]n1	-6.54
Cc1cc(C)n(CC2CN(Cc3nc(C4CC4)no3)CCO2)n1 (stereo not drawn)	-4.87
COCc1cc(N2CCOC(c3ccc(Cl)cc3)C2)ncn1 (stereo not drawn)	-10.8
COc1cc(NCc2cccnc2)c(-c2nn[nH]n2)cc1OC	-11.1
O=C(NCC(=O)N1CCCC(n2cncn2)C1)OCc1ccccc1 (stereo not drawn)	-0.265
Cc1ccsc1CNc1cc(N2CCCC2CO)ncn1 (stereo not drawn)	-4.35
COC[C@@]12CCO[C@@H]1CCN(C(=O)C1CCOCC1)C2	-11.6
CC(C)CC(NC(=O)c1cc(C2CC2)n[nH]1)c1ncnn1C (stereo not drawn)	20.9
COc1ccc(C)cc1CCNS(C)(=O)=O	-10.4
CC(C)c1nnc2n1CCN(C(=O)c1ccc(OCC3CC3)nc1)C2	11
Cn1c(N)nnc1SC1CCCN(c2ccccc2)C1=O (stereo not drawn)	-1
Cc1cc(C)n(-c2nc(C(=O)NCCS(=O)(=O)N3CCCCC3)cs2)n1	-2.01
CN(C)C(=O)N1CCN(C(=O)c2cccc(Cl)c2)CC2(CNC(=O)C2)C1 (stereo not drawn)	-4.76
Cc1ncccc1O[C@H]1CCN(C(=O)Cc2cccs2)CC[C@@H]1O	-7.99
CN1C(=O)C(C)(C)COc2cc(NS(=O)(=O)c3ccccc3F)ccc21	16.6
CC(=O)N[C@@H]1CN(C(=O)Cc2coc3cc(C)ccc23)C[C@H]1O	-2.72
CCn1nnc2c1C(COC)CN(Cc1ccco1)C2 (stereo not drawn)	39.7

SMILES	cytotoxicity at 70.5 h [%]
Cc1ccccc1CNC(=O)Cc1c(C)nc2cc(=O)[nH]n2c1C	-2.94
Cc1nc(CN2CCCC(Cn3cncn3)C2)nc2ccccc12 (stereo not drawn)	19
COc1ccccc1C(=O)N1CCC(Nc2ccc(C)nn2)CC1	-8.98
CC(C)N1CCC2(CCCNC2)C1=O (stereo not drawn)	-14.6
COc1ccccc1C(C)N1CCN(S(=O)(=O)N(C)C)CC1 (stereo not drawn)	4.97
Cc1cc(S(=O)(=O)N(CCO)C2CC2)ccc1F	-2.56
Cc1ccoc1C(=O)NC1CCN(Cc2cccc3ccccc23)CC1	1.33
CC(=O)N1[C@H](Cn2cncn2)C[C@@H]2CN(Cc3nccs3)CC[C@@H]21	14.9
N#Cc1ccc(C(=O)N2CCCSCC2CN2CCCC2)cc1 (stereo not drawn)	-5.18
CCc1nc(CN2CCCN(C(=O)c3cn[nH]c3C)CC2)cs1	-6.19
Cc1ccc(CCCC(=O)N2CCCC(CS(N)(=O)=O)C2)s1 (stereo not drawn)	-5.56
OCc1cn(CC2CCN(C3CCSC3)CC2)nn1 (stereo not drawn)	-8.28
CC(Oc1ccc(C(=O)NCCNS(C)(=O)=O)cn1)c1ccccc1 (stereo not drawn)	-8.66
COc1cc(C(=O)N(C)C)ccc1NC(=O)c1ccsc1	1.32
CO[C@H]1COCCN(C(=O)c2ccc(C#N)cc2)C1	9.9
CC(=O)NC1(C(=O)N2CCC(Nc3cccnn3)CC2)CCCCC1	3.94
CNC(=O)CN1CC[C@H]2CN(C(=O)c3ccccc3F)C[C@H]2C1	-2.12
Cc1n[nH]c(C)c1S(=O)(=O)N1CCC(Oc2cnccn2)CC1	-2.37
CN(C)CCCn1ccnc1C1CCCN(c2ncc(Cl)cc2F)C1 (stereo not drawn)	-2.12
Cc1nc(C)n(CC2CCCCN2Cc2cnc(C)s2)n1 (stereo not drawn)	-7.75
COCCCSc1ccc(NCc2ccc(C)cn2)cc1	-6.35

From ChEMBL document CHEMBL3507680, “University of Dundee, Gates Library screen for HepG2 cell viability”
